System: TFG-MET allograft tumors
Assay: RNA-sequencing, differential expression and GSEA of TFG-MET allograft tumors
Format: in vivo, mouse
Details: GSEA CAP vs Veh, C5 GO CC
Method: Error bars display standard error of mean, statistical significance was determined using t-test analysis. (****;p<0.0001, ***;p<0.001, **;p<0.01, *;p<0.05). […] Each dot represents an individual replicate. Error bars display standard error of the mean.
Each dot represents one gene.

CNC(=O)c1ccc(-c2cnc3ncc(Cc4ccc5ncccc5c4)n3n2)cc1F [Capmatinib]
NES GOCC_TRANSFERASE_COMPLEX (padj 2.19055e-16): -1.9384 | NES GOCC_NUCLEAR_SPECK (padj 5.1503e-15): -2.161 | NES GOCC_SPLICEOSOMAL_COMPLEX (padj 1.72395e-14): -2.415 | NES GOCC_CHROMOSOME_TELOMERIC_REGION (padj 7.63768e-14): -2.533 | NES GOCC_VACUOLAR_MEMBRANE (padj 7.95066e-13): 2.04 | NES GOCC_SMALL_SUBUNIT_PROCESSOME (padj 1.82971e-12): -2.75 | NES GOCC_NUCLEAR_PORE (padj 1.03541e-11): -2.588 | NES GOCC_FIBRILLAR_CENTER (padj 1.07393e-11): -2.424 | NES GOCC_CHROMATIN (padj 1.91271e-11): -1.714 | NES GOCC_PRERIBOSOME_LARGE_SUBUNIT_PRECURSOR (padj 2.94795e-11): -2.651 | NES GOCC_METHYLTRANSFERASE_COMPLEX (padj 4.53721e-11): -2.484 | NES GOCC_NUCLEAR_CHROMOSOME (padj 7.98955e-11): -2.219 | NES GOCC_RESPIRATORY_CHAIN_COMPLEX (padj 1.33777e-10): 2.821 | NES GOCC_NUCLEAR_PERIPHERY (padj 2.5338e-10): -2.3519 | NES GOCC_NUCLEAR_ENVELOPE (padj 3.91151e-9): -1.852 | NES GOCC_RIBONUCLEOPROTEIN_GRANULE (padj 4.48536e-8): -2.04 | NES GOCC_CATALYTIC_STEP_2_SPLICEOSOME (padj 5.62031e-8): -2.31 | NES GOCC_INTRACELLULAR_PROTEIN_CONTAINING_COMPLEX (padj 6.31135e-8): -1.665 | NES GOCC_TRANSCRIPTION_REGULATOR_COMPLEX (padj 7.03454e-8): -1.873 | NES GOCC_CAJAL_BODY (padj 7.11025e-8): -2.347 | NES GOCC_U2_TYPE_SPLICEOSOMAL_COMPLEX (padj 1.20627e-7): -2.187 | NES GOCC_CILIUM (padj 1.31956e-7): 1.633 | NES GOCC_CONDENSED_CHROMOSOME (padj 1.56303e-7): -2.04 | NES GOCC_IMMUNOGLOBULIN_COMPLEX (padj 1.76109e-7): 2.5876 | NES GOCC_CHROMOSOME_CENTROMERIC_REGION (padj 2.31902e-7): -2.023 | NES GOCC_TRANSFERASE_COMPLEX_TRANSFERRING_PHOSPHORUS_CONTAINING_GROUPS (padj 2.54822e-7): -1.9355 | NES GOCC_MOTILE_CILIUM (padj 6.10966e-7): 2.148 | NES GOCC_INNER_MITOCHONDRIAL_MEMBRANE_PROTEIN_COMPLEX (padj 1.03286e-6): 2.0966 | NES GOCC_HISTONE_METHYLTRANSFERASE_COMPLEX (padj 1.09294e-6): -2.238 | NES GOCC_TERTIARY_GRANULE (padj 1.29564e-6): 2.058 | NES GOCC_NUCLEAR_MEMBRANE (padj 1.93407e-6): -1.855 | NES GOCC_NADH_DEHYDROGENASE_COMPLEX (padj 2.62751e-6): 2.526 | NES GOCC_SM_LIKE_PROTEIN_FAMILY_COMPLEX (padj 3.06538e-6): -2.133 | NES GOCC_LATE_ENDOSOME_MEMBRANE (padj 3.31031e-6): 2.097 | NES GOCC_RNA_POLYMERASE_COMPLEX (padj 3.74343e-6): -2.068 | NES GOCC_HETEROCHROMATIN (padj 4.96006e-6): -2.172 | NES GOCC_PROTEIN_ACETYLTRANSFERASE_COMPLEX (padj 5.11894e-6): -2.115 | NES GOCC_CYTOPLASMIC_STRESS_GRANULE (padj 1.16359e-5): -2.152 | NES GOCC_VACUOLAR_LUMEN (padj 1.16897e-5): 1.934 | NES GOCC_SECRETORY_GRANULE_MEMBRANE (padj 1.40276e-5): 1.763 | NES GOCC_OXIDOREDUCTASE_COMPLEX (padj 1.71689e-5): 2.0601 | NES GOCC_EXTERNAL_SIDE_OF_PLASMA_MEMBRANE (padj 2.05111e-5): 1.72 | NES GOCC_CONDENSED_CHROMOSOME_CENTROMERIC_REGION (padj 2.22571e-5): -1.979 | NES GOCC_SNO_S_RNA_CONTAINING_RIBONUCLEOPROTEIN_COMPLEX (padj 3.58719e-5): -2.2 | NES GOCC_PHAGOCYTIC_VESICLE (padj 3.73055e-5): 1.9159 | NES GOCC_HOST_CELLULAR_COMPONENT (padj 4.79591e-5): -2.0648 | NES GOCC_SITE_OF_DNA_DAMAGE (padj 6.26347e-5): -2.003 | NES GOCC_AZUROPHIL_GRANULE (padj 6.43287e-5): 1.861 | NES GOCC_KINETOCHORE (padj 6.63265e-5): -1.897 | NES GOCC_AUTOPHAGOSOME (padj 6.99707e-5): 2.034 | NES GOCC_RNA_POLYMERASE_II_TRANSCRIPTION_REGULATOR_COMPLEX (padj 0.000108731): -1.813 | NES GOCC_PML_BODY (padj 0.000125034): -1.9697 | NES GOCC_EXORIBONUCLEASE_COMPLEX (padj 0.000154107): -2.113 | NES GOCC_ENDORIBONUCLEASE_COMPLEX (padj 0.000165343): -2.09 | NES GOCC_SMALL_NUCLEAR_RIBONUCLEOPROTEIN_COMPLEX (padj 0.000179714): -2.0229 | NES GOCC_IMMUNOGLOBULIN_COMPLEX_CIRCULATING (padj 0.000186482): 2.324 | NES GOCC_TERTIARY_GRANULE_MEMBRANE (padj 0.000272562): 2.004 | NES GOCC_VESICLE_LUMEN (padj 0.000275827): 1.602 | NES GOCC_LYSOSOMAL_LUMEN (padj 0.000331136): 1.858 | NES GOCC_REPLICATION_FORK (padj 0.000358866): -1.947 | NES GOCC_PRECATALYTIC_SPLICEOSOME (padj 0.000460788): -1.97 | NES GOCC_EUCHROMATIN (padj 0.000526361): -2.018 | NES GOCC_FICOLIN_1_RICH_GRANULE_MEMBRANE (padj 0.000558545): 2.085 | NES GOCC_CYTOCHROME_COMPLEX (padj 0.000649179): 2.153 | NES GOCC_PROTEIN_DNA_COMPLEX (padj 0.000678026): -1.836 | NES GOCC_SITE_OF_DOUBLE_STRAND_BREAK (padj 0.000757696): -1.897 | NES GOCC_PROTON_TRANSPORTING_TWO_SECTOR_ATPASE_COMPLEX (padj 0.000783651): 2.098 | NES GOCC_SPECIFIC_GRANULE (padj 0.000783651): 1.663 | NES GOCC_MLL1_2_COMPLEX (padj 0.000871379): -2.023 | NES GOCC_RESPIRATORY_CHAIN_COMPLEX_IV (padj 0.000871379): 2.188 | NES GOCC_CILIARY_TRANSITION_ZONE (padj 0.000882106): 1.976 | NES GOCC_BLOOD_MICROPARTICLE (padj 0.000959119): 1.774 | NES GOCC_PHAGOCYTIC_VESICLE_MEMBRANE (padj 0.00129051): 1.86 | NES GOCC_SECONDARY_LYSOSOME (padj 0.00130287): 2.219 | NES GOCC_TRANSCRIPTION_ELONGATION_FACTOR_COMPLEX (padj 0.00152226): -1.897 | NES GOCC_NUCLEAR_REPLICATION_FORK (padj 0.00173594): -1.935 | NES GOCC_TELOMERASE_HOLOENZYME_COMPLEX (padj 0.00174948): -1.978 | NES GOCC_H4_HISTONE_ACETYLTRANSFERASE_COMPLEX (padj 0.00185976): -1.863 | NES GOCC_CILIARY_PLASM (padj 0.00189918): 1.756 | NES GOCC_POLYSOME (padj 0.00219768): -1.796 | NES GOCC_PCG_PROTEIN_COMPLEX (padj 0.00279919): -1.842 | NES GOCC_T_CELL_RECEPTOR_COMPLEX (padj 0.00319727): 2.053 | NES GOCC_U2_TYPE_CATALYTIC_STEP_2_SPLICEOSOME (padj 0.00319727): -1.927 | NES GOCC_SIDE_OF_MEMBRANE (padj 0.00331543): 1.318 | NES GOCC_AZUROPHIL_GRANULE_LUMEN (padj 0.00386407): 1.725 | NES GOCC_EUKARYOTIC_TRANSLATION_INITIATION_FACTOR_3_COMPLEX (padj 0.00386407): -1.892 | NES GOCC_PROTON_TRANSPORTING_TWO_SECTOR_ATPASE_COMPLEX_PROTON_TRANSPORTING_DOMAIN (padj 0.00392051): 2.029 | NES GOCC_SYNAPTIC_VESICLE_MEMBRANE (padj 0.00392051): 1.708 | NES GOCC_SMN_SM_PROTEIN_COMPLEX (padj 0.00460194): -1.879 | NES GOCC_MHC_PROTEIN_COMPLEX (padj 0.00465351): 2.03 | NES GOCC_PLASMA_MEMBRANE_BOUNDED_CELL_PROJECTION_CYTOPLASM (padj 0.00477082): 1.5011 | NES GOCC_TRANSLATION_PREINITIATION_COMPLEX (padj 0.00477082): -1.882 | NES GOCC_9PLUS2_MOTILE_CILIUM (padj 0.00505147): 1.741 | NES GOCC_FICOLIN_1_RICH_GRANULE (padj 0.00518961): 1.502 | NES GOCC_ENDOSOME_MEMBRANE (padj 0.00609112): 1.2787 | NES GOCC_PRESPLICEOSOME (padj 0.00659701): -1.8326 | NES GOCC_ATPASE_COMPLEX (padj 0.007008): -1.657 | NES GOCC_ENDOLYSOSOME (padj 0.00786364): 1.964 | NES GOCC_EUKARYOTIC_48S_PREINITIATION_COMPLEX (padj 0.00886352): -1.849 | NES GOCC_PHAGOPHORE_ASSEMBLY_SITE (padj 0.00895831): 1.892 | NES GOCC_INTRACILIARY_TRANSPORT_PARTICLE (padj 0.00906928): 1.972 | NES GOCC_TRANSCRIPTION_REPRESSOR_COMPLEX (padj 0.00954254): -1.652
